We go through three compounds from paper PMC9649518, “Knockout of ABC transporters by CRISPR/Cas9 contributes to reliable and accurate transporter substrate identification for drug discovery” (Frontiers in Pharmacology, 2022).

Data set [1] has as its system Caco-2 WT cells.
In data set [2] the test system is Caco^Pgp−/− cells.
Data set [3] deals with Caco^BCRP−/− cells.
The test system of data set [4] is Caco^MRP2−/− cells.
The subject of data set [5] is Caco^Pgp−/−BCRP−/− cells.
For data set [6], the system named is Caco^Pgp−/−MRP2−/− cells.
Data set [7] relates to Caco^MRP2−/−BCRP−/− cells.
Data set [8] in a line: Bidirectional transport assay, Caco^BCRP−/− and Caco^MRP2−/− cells taken together. Format: in vitro ADME. The conditions noted are these: human. The procedure:
(§1) The medium was replaced every second day.
(§2) All these studies were conducted by following similar procedures. […] Then, HBSS was aspirated from both sides.
(§3) The flow rate was 0.3 mL/min.

Data set [9] can be described thus: Bidirectional transport assay across Caco-2 WT monolayers. The conditions noted are these: human.
In data set [10] the test system is Caco-2 WT cells. The description is as above. The conditions noted are these: WT Caco-2, 5 μM substrate, n = 3.
Data set [11] can be described thus: Bidirectional transport assay across P-gp KO Caco-2 monolayers. As to conditions: human, pH 7.4.
A short description of data set [12]: Bidirectional transport assay across BCRP KO Caco-2 monolayers. The conditions noted are these: human; for Papp A→B at 1 h, 5 μM / Papp B→A at 1 h, 5 μM: pH 7.4.
Data set [13] is described as follows: Bidirectional transport assay across MRP2 KO Caco-2 monolayers. As to conditions: human, pH 7.4.
Data set [14] is described as follows: Bidirectional transport assay across P-gp/BCRP double KO Caco-2 monolayers. The conditions noted are these: human, pH 7.4.
A short description of data set [15]: Bidirectional transport assay across P-gp/MRP2 double KO Caco-2 monolayers. The conditions noted are these: human, pH 7.4.
A short description of data set [16]: Bidirectional transport assay across MRP2/BCRP double KO Caco-2 monolayers. As to conditions: human; for Papp A→B at 1 h, 5 μM: pH 7.4, Papp A-to-B, Caco^MRP2−/−BCRP−/−, 5 μM substrate, 37°C, HBSS pH 7.4, n = 3.
Data set [17] concerns Caco^MRP2−/−BCRP−/− cells. Described as above. As to conditions: Caco^MRP2−/−BCRP−/−; 5 μM substrate; 1 h, 37°C, HBSS pH 7.4; n = 3.
Data set [18] in a line: Bidirectional transport assay, P-gp single- and double-KO cells taken together. It is filed as in vitro ADME. The conditions noted are these: human, pH 7.4, 5 μM substrate. As to the method:
as §1, §2, §3

Data set [19] deals with BCRP, MRP2, and MRP2/BCRP knock-out cell lines mediated by ZFN. The arrangement: method as in Sampson et al., 2015. As to conditions: ref Sampson et al., 2015, cited from earlier work.

Like-named read-outs stand apart in the source and are kept apart here.

Turning to “5-(and-6)-carboxy-2′,7′-dichlorofluorescein [CDCF]”, the “Papp A-to-B” value in data set [1] was 1.05 ± 0.34 ×10^−6cm/s; in [2] it was 1.94 ± 0.10 ×10^−6cm/s; in data set [3] it was 2.14 ± 0.08 ×10^−6cm/s; in data set [4] it was 2.33 ± 0.62 ×10^−6cm/s; in data set [5], 2.02 ± 0.20 ×10^−6cm/s; in data set [6] it was 2.41 ± 0.55 ×10^−6cm/s. Further, in data set [7], the “Papp A-to-B” value is given as 3.48 ± 0.51 ×10^−6cm/s. For the same compound, the “Papp B-to-A” value in data set [1] is listed as 8.25 ± 0.63 ×10^−6cm/s; in data set [2] it was 11.95 ± 1.61 ×10^−6cm/s; in [3] it was 10.63 ± 0.96 ×10^−6cm/s; in data set [4] it was 1.10 ± 0.13 ×10^−6cm/s; in data set [5] it was 9.42 ± 0.55 ×10^−6cm/s; in data set [6], 1.64 ± 0.46 ×10^−6cm/s. For the same compound, the “Papp B-to-A” value in [7] is on record as 3.05 ± 0.80 ×10^−6cm/s.
In the case of `CC(C)CN(C[C@@H](O)[C@H](Cc1ccccc1)NC(=O)O[C@H]1CO[C@H]2OCC[C@H]21)S(=O)(=O)c1ccc(N)cc1` [Darunavir], the apical-to-basolateral permeability (Papp A→B) at 1 h, 5 μM in data set [8] (pH 7.4, read-out: Papp (A-to-B) permeability) is 1.7 to 1.8 ×10⁻⁶ cm/s; in data set [9] (Caco-2, pH 7.4, Papp A-to-B, WT Caco-2, 5 μM substrate, 1 h, 37°C, HBSS pH 7.4, n = 3), 2.6 ×10⁻⁶ cm/s; in [11], 15.1 ± 0.68 ×10⁻⁶ cm/s; in data set [12], 1.75 ± 0.13 ×10⁻⁶ cm/s; in data set [13], 1.9 ± 0.14 ×10⁻⁶ cm/s; in [14] it was 12.6 ± 1.31 ×10⁻⁶ cm/s. Moreover, the Papp A→B at 1 h, 5 μM in data set [15] was 10.1 ± 0.44 ×10⁻⁶ cm/s; in [16], 4.4 ×10⁻⁶ cm/s. In addition, the Papp B→A at 1 h, 5 μM in data set [8] (pH 7.4, read-out: Papp (B-to-A) permeability) is 29.8 to 34.3 ×10⁻⁶ cm/s; in data set [9] (Caco-2, pH 7.4, Papp B-to-A, WT Caco-2, 5 μM substrate, 1 h, 37°C, HBSS pH 7.4, n = 3) it was 26.6 ×10⁻⁶ cm/s; in data set [11] it was 13.6 ± 0.8 ×10⁻⁶ cm/s; in data set [12], 34.32 ± 0.19 ×10⁻⁶ cm/s; in data set [13], 29.84 ± 0.24 ×10⁻⁶ cm/s; in data set [14] it was 11.5 ± 0.38 ×10⁻⁶ cm/s. For the same compound, the results for the Papp B→A at 1 h, 5 μM in data set [15] and in data set [16] (pH 7.4) were 10.4 ± 0.2 ×10⁻⁶ cm/s and 27 ± 0.79 ×10⁻⁶ cm/s, respectively. The “Papp A-to-B” value in data set [10] (1 h, 37°C, HBSS pH 7.4) is 2.65 ± 0.22 ×10^−6cm/s; in [17], 4.43 ± 0.63 ×10^−6cm/s. Also, the “Papp B-to-A” value in data set [10] (1 h, 37°C, HBSS pH 7.4) is given as 26.59 ± 2.06 ×10^−6cm/s.
As to `C[C@H]1O[C@@H](O[C@H]2[C@@H](O)C[C@H](O[C@H]3[C@@H](O)C[C@H](O[C@H]4CC[C@@]5(C)[C@H](CC[C@@H]6[C@@H]5C[C@@H](O)[C@]5(C)[C@@H](C7=CC(=O)OC7)CC[C@]65O)C4)O[C@@H]3C)O[C@@H]2C)C[C@H](O)[C@@H]1O` [Digoxin], the efflux ratio at 1 h, 5 μM in [18] was 1; in [9] (Caco-2, pH 7.4, Efflux ratio, WT Caco-2, 5 μM substrate, Papp(B-to-A)/Papp(A-to-B), n = 3) it was 6.4; in data set [11] it was 1.2 ± 0.21; in data set [12] (pH 7.4, Efflux ratio, Caco^BCRP−/−, 5 μM substrate, n = 3), 9.11 ± 1.66; in [13], 9.08 ± 2.87; in data set [14], 0.9 ± 0.21. Further, the efflux ratio at 1 h, 5 μM is 1.05 ± 0.29 in data set [15] and 9.36 ± 3.17 in data set [16] (pH 7.4). Besides, the “Papp A-to-B” value is reported as ~ 0.25 × 10^–6 cm/s in data set [19] (BCRP, MRP2, and MRP2/BCRP knock-out cell lines mediated by ZFN); 0.99 × 10^–6 cm/s in data set [19] (starting value before knock-out ('from')). Also, the Papp A→B at 1 h, 5 μM in [9] (Caco-2, pH 7.4) stood at 1.48 ± 0.21 ×10⁻⁶ cm/s; in data set [11], 1.42 ± 0.2 ×10⁻⁶ cm/s; in data set [12], 1.66 ± 0.42 ×10⁻⁶ cm/s; in [13], 2.05 ± 0.51 ×10⁻⁶ cm/s; in data set [14], 2.42 ± 0.64 ×10⁻⁶ cm/s; in data set [15], 1.95 ± 0.92 ×10⁻⁶ cm/s. For the same compound, the Papp A→B at 1 h, 5 μM in [16] turned out to be 2.03 ± 0.55 ×10⁻⁶ cm/s. Also, the Papp B→A at 1 h, 5 μM in [9] (Caco-2, pH 7.4) was found to be 9.33 ± 1.34 ×10⁻⁶ cm/s; in [11], 1.67 ± 0.23 ×10⁻⁶ cm/s; in data set [12], 14.8 ± 1.85 ×10⁻⁶ cm/s; in data set [13], 17.6 ± 1.13 ×10⁻⁶ cm/s; in data set [14], 2.08 ± 0.12 ×10⁻⁶ cm/s; in data set [15], 1.87 ± 0.4 ×10⁻⁶ cm/s. This compound registered a Papp B→A at 1 h, 5 μM in [16] (pH 7.4) of 17.9 ± 0.63 ×10⁻⁶ cm/s. In [10] (Papp(B-to-A)/Papp(A-to-B)), the Efflux ratio amounted to 6.38 ± 1.21.
